Results: US7915293B2, “Ubiquitin ligase inhibitors” (Rigel Pharmaceuticals, Inc., priority 2003, dated 2011)

Key:
Set-up in all cases: key: “+” indicates that the compound exibits inhibitory activity; “−” indicates that low or no inhibitory activity was observed
[1] = target: E3 (His-APC11/APC2-"APC") (Homo sapiens, UniProt Q9NYG5+Q9UJX6); assay: Plate-based E3 ligase assay (APC FLAG), auto-ubiquitination; type: biochemical; settings: 8 concentrations tested
Summary of the method: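 His-APC11/APC2 auto-ubiquitination was run in casein-blocked nickel plates for 1 h at room temperature, with E1 at 5 ng/well, UbcH5c at 20 ng/well and APC at 100 ng/well. Buffer was 62.5 mM Tris pH 7.6, 3 mM MgCl2, 1 mM DTT, 2.5 mM ATP and Flag-ubiquitin at 100 ng/well. Detection used anti-Flag/HRP chemiluminescence, and IC50 was typically from 6 or 8 concentrations versus a DMSO control.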

A549 cells [2] = assay: Cell proliferation assay, photographic image analysis of proliferation, apoptosis and death (PAD assay), A549; type: cell-based; settings: 6 concentrations tested
Summary of the method: (§1)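 Cells grown in RPMI with 5% FBS (2,000/well) and dosed 24 h after plating with 6.3-fold dilutions in duplicate (master plate 500× final, top 10 mM stock). After 48 h at 37 °C, cells formamide-fixed and DAPI-stained. Image analysis counted live, apoptotic and dead cells.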

HeLa cells [3] = assay: Cell proliferation assay, photographic image analysis of proliferation, apoptosis and death (PAD assay), HeLa; type: cell-based; settings: 6 concentrations tested
Summary of the method: as §1

HCT116 cells [4] = assay: Cell proliferation assay, photographic image analysis of proliferation, apoptosis and death (PAD assay), HCT116; type: cell-based; settings: 6 concentrations tested
Method: (§2) A549 (ATCC# CCL-185), HeLa (ATCC# CCL-2), HCT116 (ATCC# CCL-247), and H1299 (ATCC# CRL-5803) cells were maintained in T175 flasks following the ATCC recommended media and handling procedures. Flasks reaching approximately 70% confluency were trypsinized and resuspended in RPMI media (Cell-Gro catalog number 10-040-CM) modified to contain 5% FBS, 100 ug/mlPen/Strep (Cell-Gro catalog number 30-002-CL), and 0.3 mg/ml L-Glutamine (Cell-Gro catalog number 25-003-CL). A 20,000 cells/ml solution was made for plating. Cells were plated in black Packard 96 well plates by placing 100 μl per well (2,000 cells per well).
(§3) Compounds and additional media were added 24 hours after cell plating. A compound master plate was created with concentrations 500 times greater than the final concentration added to the cells. All compound testing was done in duplicate using 6.3 fold dilutions starting with 10 mM. All outside wells (and 4 internal wells) were DMSO controls. Taxol and at least one additional control were run on all plates. Three microliters of the compound master plate were added to deep well blocks containing 750 μl of RPMI media. One hundred microliters were transferred from the compound/media deep well blocks to the plated cells resulting in a 500 fold dilution of the compounds. Cells were grown at 37° C., 5% CO2 for 48 hours.
(§4) Cells to be analyzed by photography were fixed and stained. One hundred microliters of media were removed and 100 μl of 9.3% […] was added to each well. Plates were left on the benchtop for 45 minutes. A staining solution containing 1.55 μl of 1 mg/ml DAPI added to 18.75 ml PBS was warmed for 15 minutes at 37° C. The cells were aspirated prior to washing with 100 μl of PBS. Seventy microliters of PBS were aspirated and 170 μl of the DAPI solution were added to each well of fixed cells. Plates were left at room temperature for one hour then aspirated and washed twice with 100 μl of PBS. The stained cells were left at 4° C. for a minimum of 16 hours before photographic analysis with Array Scan II (Cellomics). Analysis of the photographic images to determine numbers of live cells (proliferation), apoptotic cells and dead cells, were according to the methods described in U.S. Provisional Patent Application Ser. No. 60/406,714, which incorporated herein in its entirety.

A549 cells [5] = assay: Non-photographic proliferation analysis (Promega Cell titer Aqueous), A549; type: cell-based; settings: 6 concentrations tested
Method: as §2, §3
(§5) Some cell plates were treated with Promega Cell titer Aqueous 1 kit (promega—VWR catalog number G3580). In this case, 48 hours after the test compound were added, 100 μl of media were removed and 20 μl of cell titer reagent were added to all wells. Plates were incubated at 37° C. for 45 minutes prior to absorbance reads on the Wallac plate reader at 490 nm for 0.1 sec/well.

HeLa cells [6] = assay: Non-photographic proliferation analysis (Promega Cell titer Aqueous), HeLa; type: cell-based; settings: 6 concentrations tested
Method: as §2, §3, §5

HCT116 cells [7] = assay: Non-photographic proliferation analysis (Promega Cell titer Aqueous), HCT116; type: cell-based; settings: 6 concentrations tested
Method: as §2, §3, §5

H1299 cells = assay: Cell proliferation assay, photographic image analysis of proliferation, apoptosis and death (PAD assay), H1299; type: cell-based; settings: 6 concentrations tested
Method: as §2, §3, §4

MDM2 / p53 substrate = MDM2 / p53 substrate (Homo sapiens, UniProt Q00987); assay: Plate-based MDM2 substrate ligation assay (MDM2-P53-FLAG); type: biochemical; settings: 8 concentrations tested
Excerpt: This assay was preformed essentially as described in WO 03/076899 (page 77, line 5 to page 80, line 13), hereby incorporated by reference in its entirety.

Sequence of MDM2 / p53 substrate (Q00987 whole entry): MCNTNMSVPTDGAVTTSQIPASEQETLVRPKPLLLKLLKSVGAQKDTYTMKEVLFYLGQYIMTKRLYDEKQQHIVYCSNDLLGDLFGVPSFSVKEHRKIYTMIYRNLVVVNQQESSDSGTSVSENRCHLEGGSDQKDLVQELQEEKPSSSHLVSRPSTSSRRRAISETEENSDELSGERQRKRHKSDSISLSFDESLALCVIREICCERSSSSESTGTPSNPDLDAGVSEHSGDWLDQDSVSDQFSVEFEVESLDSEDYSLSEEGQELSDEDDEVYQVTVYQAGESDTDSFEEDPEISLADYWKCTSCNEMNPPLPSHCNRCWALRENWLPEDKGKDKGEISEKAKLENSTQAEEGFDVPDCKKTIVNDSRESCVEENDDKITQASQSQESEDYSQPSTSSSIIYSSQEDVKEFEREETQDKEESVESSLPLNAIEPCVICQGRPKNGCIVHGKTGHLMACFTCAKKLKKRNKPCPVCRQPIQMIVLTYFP
Sequence of E3 (His-APC11/APC2-"APC") (Q9NYG5 whole entry): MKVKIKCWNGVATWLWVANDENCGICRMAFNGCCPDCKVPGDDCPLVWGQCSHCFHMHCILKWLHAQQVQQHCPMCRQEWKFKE
Sequence of E3 (His-APC11/APC2-"APC") (Q9UJX6 whole entry): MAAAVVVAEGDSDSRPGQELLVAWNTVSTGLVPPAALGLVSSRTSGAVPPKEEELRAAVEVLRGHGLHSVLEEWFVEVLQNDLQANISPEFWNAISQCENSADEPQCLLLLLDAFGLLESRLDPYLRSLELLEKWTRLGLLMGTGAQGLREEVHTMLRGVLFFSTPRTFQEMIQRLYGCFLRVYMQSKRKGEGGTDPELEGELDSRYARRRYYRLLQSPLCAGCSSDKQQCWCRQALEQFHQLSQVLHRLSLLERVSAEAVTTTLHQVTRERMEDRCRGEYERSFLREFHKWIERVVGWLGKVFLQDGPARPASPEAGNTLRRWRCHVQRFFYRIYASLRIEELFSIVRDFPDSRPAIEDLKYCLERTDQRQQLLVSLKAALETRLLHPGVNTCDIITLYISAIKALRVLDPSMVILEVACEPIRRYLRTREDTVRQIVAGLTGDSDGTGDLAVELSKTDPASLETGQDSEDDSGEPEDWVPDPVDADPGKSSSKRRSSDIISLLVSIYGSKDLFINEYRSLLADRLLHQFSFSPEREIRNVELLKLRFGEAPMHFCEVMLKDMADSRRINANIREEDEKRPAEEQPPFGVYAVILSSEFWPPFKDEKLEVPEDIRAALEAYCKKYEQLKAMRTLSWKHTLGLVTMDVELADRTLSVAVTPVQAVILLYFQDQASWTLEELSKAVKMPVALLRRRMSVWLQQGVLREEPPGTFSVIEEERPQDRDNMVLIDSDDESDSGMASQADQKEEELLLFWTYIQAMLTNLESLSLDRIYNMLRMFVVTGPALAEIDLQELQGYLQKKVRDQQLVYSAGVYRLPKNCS

| APC Flag 8 pt [1] | MDM2-P53 Flag 8 pt (MDM2 / p53 substrate) | Compound | PAD Assay, A549 6 pt (A549 cells [2]) | PAD Assay, HELA 6 pt (HeLa cells [3]) | PAD Assay, HCT116 6 pt (HCT116 cells [4]) | Cell Titer-Aqueous, A549 6 pt (A549 cells [5]) | Cell Titer-Aqueous, HELA 6 pt (HeLa cells [6]) | Cell Titer-Aqueous, HCT116 6 pt (HCT116 cells [7]) | PAD Assay, H1299 6 pt (H1299 cells) |
| --- | --- | --- | --- | --- | --- | --- | --- | --- | --- |
| + | − | O=[N+]([O-])c1ccc(Oc2c(Cl)cc(S(=O)(=O)Nc3ccc(F)cc3)cc2Cl)c(Cl)c1 [Example 23, 3,5-dichloro-4-(2-chloro-4-nitrophenoxy)-N-(4-fluorophenyl)benzenesulfonamide] | + | + |  | + | + | + |  |
| + | + | O=[N+]([O-])c1ccc(Oc2c(Cl)cc(S(=O)(=O)Nc3cc(Cl)cc(Cl)c3)cc2Cl)c(Cl)c1 [Example 24, 3,5-dichloro-4-(2-chloro-4-nitrophenoxy)-N-(3,5-dichlorophenyl)benzenesulfonamide] | − |  |  |  |  |  |  |
| + | − | O=C(NCC1CC1)c1ccccc1NS(=O)(=O)c1cc(Cl)c(Oc2ccc([N+](=O)[O-])cc2Cl)c(Cl)c1 [Example 123, N-(cyclopropylmethyl)-2-({[3,5-dichloro-4-(2-chloro-4-nitrophenoxy)phenyl]sulfonyl}amino)benzamide] | + | + |  | + | + | + |  |
| + |  | Cc1c(Cl)cccc1NS(=O)(=O)c1cc(Cl)c(Oc2ccc([N+](=O)[O-])cc2Cl)c(Cl)c1 [Example 147, 3,5-dichloro-N-(3-chloro-2-methylphenyl)-4-(2-chloro-4-nitrophenoxy)benzene-sulfonamide] | + | + |  | + | + | + |  |
| + |  | CS/C(=N\S(=O)(=O)c1cc(Cl)c(Oc2ccc([N+](=O)[O-])cc2Cl)c(Cl)c1)Nc1ccc(Cl)cc1 [Example 149, methyl N-(4-chlorophenyl)-N′-{[3,5-dichloro-4-(2-chloro-4-nitrophenoxy)phenyl]sulfonyl} imidothiocarbamate] | + | + |  | + | + | + |  |
| + |  | O=[N+]([O-])c1ccc(Oc2c(Cl)cc(S(=O)(=O)Nc3cc(F)ccc3C(F)(F)F)cc2Cl)c(Cl)c1 [Example 235, 3,5-dichloro-4-(2-chloro-4-nitrophenoxy)-N-[5-fluoro-2-(trifluoromethyl)phenyl] benzenesulfonamide] | + | + |  |  |  |  | + |
| + |  | O=S(=O)(Nc1cc(Cl)ccc1Cl)c1ccc(Oc2ncc(C(F)(F)F)cc2Cl)cc1 [Example 253, 4-{[3-chloro-5-(trifluoromethyl)pyridin-2-yl]oxy}-N-(2,5-dichlorophenyl)benzene-sulfonamide] | + | + | + |  |  |  | + |

More lines, now with the values behind:

| Compound | APC Flag 8 pt [1] | MDM2-P53 Flag 8 pt (MDM2 / p53 substrate) | PAD Assay, A549 6 pt (A549 cells [2]) | PAD Assay, HELA 6 pt (HeLa cells [3]) | PAD Assay, HCT116 6 pt (HCT116 cells [4]) | Cell Titer-Aqueous, A549 6 pt (A549 cells [5]) | Cell Titer-Aqueous, HELA 6 pt (HeLa cells [6]) | Cell Titer-Aqueous, HCT116 6 pt (HCT116 cells [7]) | PAD Assay, H1299 6 pt (H1299 cells) |
| --- | --- | --- | --- | --- | --- | --- | --- | --- | --- |
| O=[N+]([O-])c1ccc(Oc2c(Cl)cc(S(=O)(=O)Nc3cccc(Cl)c3)cc2Cl)c(Cl)c1 [Compound 154, 3,5-dichloro-4-(2-chloro-4-nitrophenoxy)-N-(3-chlorophenyl)benzenesulfonamide] | + |  | − | − | − | + | + | − |  |
| O=[N+]([O-])c1ccc(Oc2c(Cl)cc(S(=O)(=O)Nc3ccc(Cl)c(Cl)c3)cc2Cl)c(Cl)c1 [Compound 167, 3,5-dichloro-4-(2-chloro-4-nitrophenoxy)-N-(3,4-dichlorophenyl)benzenesulfonamide] | + |  | + | + |  | + | + |  | + |
| O=[N+]([O-])c1ccc(Oc2c(Cl)cc(S(=O)(=O)Nc3cc(C(F)(F)F)ccc3Cl)cc2Cl)c(Cl)c1 [Compound 243, 3,5-dichloro-4-(2-chloro-4-nitrophenoxy)-N-(2-chloro-5-(trifluoromethyl)phenyl]benzenesulfonamide] | + |  | + | + | + |  |  |  | + |
| O=S(=O)(Nc1cc(Cl)ccc1C(F)(F)F)c1cc(Cl)c(Oc2ccc(Cl)cc2Cl)c(Cl)c1 [Compound 249, 3,5-dichloro-N-[5-chloro-2-(trifluoromethyl)phenyl]-4-(2,4-dichlorophenoxy) benzenesulfonamide] | + |  | + | + |  |  |  |  | + |
| O=S(=O)(Nc1cc(C(F)(F)F)ccc1Cl)c1ccc(Oc2ncc(C(F)(F)F)cc2Cl)cc1 [Compound 254, N-[2-chloro-5-(trifluoromethyl)phenyl]-4-{[3-chloro-5-(trifluoromethyl)pyridin-2-yl]oxy}benzenesulfonamide] | + |  | + | + | + |  |  |  | + |
| O=[N+]([O-])c1ccc(Oc2ccc(S(=O)(=O)Nc3cc(C(F)(F)F)ccc3Cl)cc2Cl)c(C(F)(F)F)c1 [Compound 264] | + |  | + | + |  |  |  |  | + |
| O=[N+]([O-])c1ccc(Oc2c(Cl)cc(S(=O)(=O)Nc3cccc(C(F)(F)F)c3)cc2Cl)c(Cl)c1 [Example 7, 3,5-dichloro-4-(2-chloro-4-nitrophenoxy)-N-[3-(trifluoromethyl)phenyl]benzene-sulfonamide] |  | − |  |  |  |  |  |  |  |
